Key:
Type in all cases: cell-based
T47D = assay: Cytotoxicity against human T47D cells assessed as effect on cell growth at 10 uM incubated for 48 hrs by sulforhodamine B assay
KM12 = assay: Cytotoxicity against human KM12 cells assessed as effect on cell growth at 10 uM incubated for 48 hrs by sulforhodamine B assay; details: km12, 48 h
CCRF-CEM = assay: Cytotoxicity against human CCRF-CEM cells assessed as effect on cell growth at 10 uM incubated for 48 hrs by sulforhodamine B assay
U-251 = assay: Cytotoxicity against human U251 cells assessed as effect on cell growth at 10 uM incubated for 48 hrs by sulforhodamine B assay; details: u-251, 48 h
SF-295 = assay: Cytotoxicity against human SF295 cells assessed as effect on cell growth at 10 uM incubated for 48 hrs by sulforhodamine B assay; details: sf-295, 48 h
ACHN = assay: Cytotoxicity against human ACHN cells assessed as effect on cell growth at 10 uM incubated for 48 hrs by sulforhodamine B assay
NCI-H460 = assay: Cytotoxicity against human NCI-H460 cells assessed as effect on cell growth at 10 uM incubated for 48 hrs by sulforhodamine B assay; details: nci-h460, 48 h
LOX IMVI = assay: Cytotoxicity against human LOXIMVI cells assessed as effect on cell growth at 10 uM incubated for 48 hrs by sulforhodamine B assay
HL-60(TB) = assay: Cytotoxicity against human HL-60(TB) cells assessed as effect on cell growth at 10 uM incubated for 48 hrs by sulforhodamine B assay
HCT-116 = assay: Cytotoxicity against human HCT116 cells assessed as effect on cell growth at 10 uM incubated for 48 hrs by sulforhodamine B assay; details: hct-116, 48 h
Malme-3M = assay: Cytotoxicity against human MALME-3M cells assessed as effect on cell growth at 10 uM incubated for 48 hrs by sulforhodamine B assay
RPMI-8226 = assay: Cytotoxicity against human RPMI8226 cells assessed as effect on cell growth at 10 uM incubated for 48 hrs by sulforhodamine B assay; details: rpmi-8226, 48 h
PC-3 = assay: Cytotoxicity against human PC3 cells assessed as effect on cell growth at 10 uM incubated for 48 hrs by sulforhodamine B assay; details: pc-3, 48 h
NCI/ADR-RES = assay: Cytotoxicity against human NCI/ADR-RES cells assessed as effect on cell growth at 10 uM incubated for 48 hrs by sulforhodamine B assay
OVCAR-4 = assay: Cytotoxicity against human OVCAR4 cells assessed as effect on cell growth at 10 uM incubated for 48 hrs by sulforhodamine B assay; details: ovcar-4, 48 h
UACC-257 = assay: Cytotoxicity against human UACC257 cells assessed as effect on cell growth at 10 uM incubated for 48 hrs by sulforhodamine B assay; details: uacc-257, 48 h
MDA-MB-468 = assay: Cytotoxicity against human MDA-MB-468 cells assessed as effect on cell growth at 10 uM incubated for 48 hrs by sulforhodamine B assay; details: mda-mb-468, 48 h
OVCAR-3 = assay: Cytotoxicity against human OVCAR3 cells assessed as effect on cell growth at 10 uM incubated for 48 hrs by sulforhodamine B assay; details: ovcar-3, 48 h
SNB-75 = assay: Cytotoxicity against human SNB75 cells assessed as effect on cell growth at 10 uM incubated for 48 hrs by sulforhodamine B assay; details: snb-75, 48 h
IGROV-1 = assay: Cytotoxicity against human IGROV1 cells assessed as effect on cell growth at 10 uM incubated for 48 hrs by sulforhodamine B assay; details: igrov-1, 48 h

Measured: Activity

CN(C)/C=C1\C[C@H]2C(=O)N(/C(=C/N(C)C)c3ccncc3)C(N(C)C)N2C1=O (stereo not given in full)
Non-Toxic: all assays above

COc1cc(CNC(=O)[C@@H]2CCC(=O)N2)cc(OC)c1OC
Non-Toxic: all assays above

O=C1N[C@H](C(=O)NCc2ccc(Cl)cc2Cl)CO1
Non-Toxic: all assays above

O=C(NCc1ccc(Cl)cc1Cl)[C@@H]1COC(=O)N1c1cccs1
Non-Toxic: all assays above

O=C1CCCC(C(=O)NCc2ccc(Cl)cc2Cl)N1 (stereo not given)
Non-Toxic: all assays above

COc1ccccc1CN1C(=O)[C@@H]2C/C(=C\N(C)C)C(=O)N2C1N(C)C (stereo not given in full)
Non-Toxic: all assays above

O=C1N[C@H](C(=O)NCc2ccc(Cl)cc2Cl)C/C1=N\O (stereo in doubt)
Non-Toxic: all assays above

O=C(NCCc1ccccc1)[C@@H]1CCC(=O)N1Cc1ccc(Cl)cc1Cl
Non-Toxic: all assays above

— ChEMBL document CHEMBL4627246, “Pyroglutamide-Based P2X7 Receptor Antagonists Targeting Inflammatory Bowel Disease” (J Med Chem, 2020)
